Laboratory results reported in publication PMC9571433, “Design, Synthesis, Anti-Varicella-Zoster and Antimicrobial Activity of (Isoxazolidin-3-yl)Phosphonate Conjugates of N1-Functionalised Quinazoline-2,4-Diones” (Molecules, 2022).
≈ marks a conversion by molar mass, not a printed value. Read-outs that look alike come from different tables or passages of the source.

What was measured:
TK+ VZV OKA strain = experiment: microbe, parasite or virus in culture; type: cell-based, varicella-zoster virus; conditions: Human alphaherpesvirus 3, HEL, read-out: Antiviral Activity EC50 TK+ VZV Strain (OKA)
TK– VZV 07-1 strain = experiment: microbe, parasite or virus in culture; type: cell-based, varicella-zoster virus; conditions: Human alphaherpesvirus 3, HEL, read-out: Antiviral Activity EC50 TK– VZV Strain (07-1)
[1] = tested on: Salmonella typhimurium TA98, TA100, TA1535 and TA1537 and Escherichia coli WP2 uvrA[pKM101]; experiment: Ames mutagenicity assay (Ames MPF Penta I, bacterial reverse mutation test, with S9); type: cell-based; conditions: up to 0.625 mg/mL; with Aroclor 1254-induced rat liver S9
Procedure: The study was performed using a standard microplate Ames MPF^TM Penta I kit (Xenometrix, Allschwil, Switzerland), compliant with the OECD guideline […] [29] and the International Organization for Standardization. This test is a widely accepted short-term bacterial assay for the identification of substances that can produce genetic damage that leads to gene mutations. The bacterial strains used in this assay have various mutations that inactivate a gene involved in the synthesis of essential amino acids, either histidine (Salmonella typhimurium, TA98, TA100, TA1535 and TA1537 strains) or tryptophan (Escherichia coli, WP2uvrA[pKM101 strain), so they can only grow in the culture medium that is supplemented with that amino acid. The mutagenic potential of the sample was assessed after metabolic activation in the presence of Aroclor 1254-induced rat liver S9 (S9 Cofactor kit, Xenometrix, Allschwil, Switzerland). […]
Mutagenicity was determined using a standard microplate AMES MPF^TM PENTA I kit according to the manufacturer’s instructions (Xenometrix, Allschwil, Switzerland). […] The number of wells containing revertant colonies was counted for each dose and compared to a solvent (negative) control. […] The mutagenic potential of the sample was assessed after metabolic activation in the presence of Aroclor 1254-induced rat liver S9 (S9 Cofactor kit, Xenometrix, Allschwil, Switzerland). […]

[2] = tested on: human embryonic lung (HEL) cells; conditions: minimum cytotoxic concentration causing microscopically detectable alteration of cell morphology
E. faecalis ATCC 29212 = experiment: Broth microdilution MIC/MBC; conditions: Enterococcus faecalis, ATCC29212, 24 h
S. aureus ATCC 2593 = experiment: Broth microdilution MIC/MBC; conditions: Staphylococcus aureus, ATCC2593, 24 h, read-out: MIC = MBC
B. cereus PCM 1948 = experiment: Broth microdilution MIC/MBC; conditions: Bacillus cereus
E. coli ATCC 25922 = experiment: Broth microdilution MIC/MBC; conditions: Escherichia coli, ATCC25922, 24 h, read-out: MIC = MBC
P. aeruginosa ATCC 27853 = experiment: Broth microdilution MIC/MBC; conditions: Pseudomonas aeruginosa, ATCC27853, 24 h, read-out: MIC = MBC
C. albicans ATCC 10241 = experiment: Broth microdilution MIC/MBC (antifungal); conditions: Candida albicans, ATCC10241, read-out: MIC = MBC
[3] = tested on: A. brasiliensis ATCC 16404; experiment: Broth microdilution MIC/MBC (antifungal); conditions: Aspergillus brasiliensis, ATCC16404, 72 h, read-out: MIC = MBC
[4] = tested on: varicella-zoster virus (VZV); set-up: method as in PMID 24906510, PMID 28763115, PMID 24219992; conditions: read-out: EC50 inhibition of replication of varicella-zoster virus (VZV); cited from earlier work
adenovirus-2 = tested on: adenovirus-2; set-up: method as in PMID 28763115; conditions: read-out: EC50 towards adenovirus-2; cited from earlier work

For `CCOP(=O)(OCC)[C@H]1C[C@H](Cn2c(=O)c3ccccc3n(Cc3cccc(F)c3)c2=O)ON1C` (relative stereo) [Diethyl trans-(5-((1-(3-fluorobenzyl)-2,4-dioxo-1,4-dihydroquinazolin-3(2H)-yl)methyl)-2-methylisoxazolidin-3-yl)phosphonate], the EC50 (TK+ VZV OKA strain) was 100 µM, the EC50 (TK– VZV 07-1 strain) was 58.5 µM and the “Mutagenicity (Ames test)” value [1] was “not being mutagenic”. The “Cytotoxicity Cell Morphology MCC” value [2] was over 100 μM, the MBC (E. faecalis ATCC 29212) was over 5000 µg/mL and the MIC (E. faecalis ATCC 29212) was over 5000 µg/mL. It also gave an MIC (S. aureus ATCC 2593) of 5000 µg/mL (≈ 9.89 mM), an MIC (B. cereus PCM 1948; PCM1948) of 625 µg/mL (≈ 1.24 mM) and an MIC (B. cereus PCM 1948; PCM1948, 24 h, read-out: MIC = MBC) of 625 µg/mL (≈ 1.24 mM). For the same molecule, the MIC (E. coli ATCC 25922) was 2500 µg/mL (≈ 4.95 mM), the MIC (P. aeruginosa ATCC 27853) was 2500 µg/mL (≈ 4.95 mM) and the MIC (C. albicans ATCC 10241) was 2500 µg/mL (≈ 4.95 mM). For the same molecule, the MIC [3] was 5000 µg/mL (≈ 9.89 mM).
For `O=C(c1ccc(F)cc1)n1c(=O)c2ccccc2n(Cc2cn(CCCOCc3ccccc3)nn2)c1=O` [6a], the EC50 [4] is given as 6.8 to 8.2 µM.
In the case of `C#CCn1c(=O)n(C(=O)c2ccc(F)cc2)c(=O)c2ccccc21` [compound 5], the EC50 (adenovirus-2) is given as 8.3 µM.
